Reference: ChEMBL document CHEMBL4219024, “A "Click Chemistry Platform" for the Rapid Synthesis of Bispecific Molecules for Inducing Protein Degradation” (J Med Chem, 2018)
Values after ≈ are worked out from the molar mass of the structure shown. Active and inactive are the calls of the source. No cut-off for these calls is given here.

Legend:
[1] = biological target: T1, Protein cereblon/Bromodomain-containing protein 4/DNA damage-binding protein 1 (Homo sapiens, UniProt O60885+Q96SW2+Q16531); assay: Induction of CRBN/DDB1-mediated BRD4 protein degradation in human NCI-H661 cells assessed as drug level causing 50% cellular protein depletion incubated for 4 hrs by MSD assay
[2] = Solubility of the compound in PBS
[3] = Solubility of the compound in 0.01 N HCl
[4] = biological target: T2, von Hippel-Lindau disease tumor suppressor/Bromodomain-containing protein 4 (Homo sapiens) (UniProt O60885+P40337); assay: Induction of human His-tagged VHL(1 to 154)/GST-tagged BRD4 (49 to 170 residues) interaction assessed as VHL/BRD4/compound complex formation preincubated for 60 mins and measured after 60 mins by luminescence based Alphascreen proximity assay relative to control; assay type: protein assay
physchem = settings: fasted state simulated intestinal fluid
[5] = biological target: T1, Protein cereblon/Bromodomain-containing protein 4/DNA damage-binding protein 1; assay: Proteolysis targeting chimera activity in human NCI-H661 cells assessed as induction of CRBN/DDB1-mediated delivery of BRD4 for protein degradation at 1 uM after 4 hrs by Meso Scale Diagnostics assay; assay type: cell-based
[6] = biological target: T1, Protein cereblon/Bromodomain-containing protein 4/DNA damage-binding protein 1; assay: Proteolysis targeting chimera activity in human NCI-H661 cells assessed as induction of CRBN/DDB1-mediated delivery of BRD4 for protein degradation by proteasome at 1 uM after 4 hrs in presence of 10 uM of JQ-1 by Meso Scale Diagnostics assay; assay type: cell-based
[7] = biological target: T1, Protein cereblon/Bromodomain-containing protein 4/DNA damage-binding protein 1; assay: Proteolysis targeting chimera activity in human NCI-H661 cells assessed as induction of CRBN/DDB1-mediated delivery of BRD4 for protein degradation by proteasome at 1 uM after 4 hrs in presence of 10 uM thalidomide by Meso Scale Diagnostics assay; assay type: cell-based
[8] = biological target: T1, Protein cereblon/Bromodomain-containing protein 4/DNA damage-binding protein 1; assay: Proteolysis targeting chimera activity in human NCI-H661 cells assessed as induction of CRBN/DDB1-mediated delivery of BRD4 for protein degradation by proteasome at 1 uM after 4 hrs in presence of 20 uM MG132 by Meso Scale Diagnostics assay; assay type: cell-based
[9] = biological target: T1, Protein cereblon/Bromodomain-containing protein 4/DNA damage-binding protein 1; assay: Proteolysis targeting chimera activity in human NCI-H661 cells assessed as induction of CRBN/DDB1-mediated delivery of BRD4 for protein degradation by proteasome at 10 uM after 4 hrs by Meso Scale Diagnostics assay; assay type: cell-based
[10] = biological target: T2, von Hippel-Lindau disease tumor suppressor/Bromodomain-containing protein 4 (Homo sapiens); assay: Proteolysis targeting chimera activity in human NCI-H661 cells assessed as induction of VHL-mediated delivery of BRD4 for protein degradation by proteasome after 4 hrs in presence of 2-(prop-2-ynyloxy)ethanol by Meso Scale Diagnostics assay; assay type: cell-based

T2 sequence (P40337 whole entry, looked up, other chains not shown, the tested form may be a part): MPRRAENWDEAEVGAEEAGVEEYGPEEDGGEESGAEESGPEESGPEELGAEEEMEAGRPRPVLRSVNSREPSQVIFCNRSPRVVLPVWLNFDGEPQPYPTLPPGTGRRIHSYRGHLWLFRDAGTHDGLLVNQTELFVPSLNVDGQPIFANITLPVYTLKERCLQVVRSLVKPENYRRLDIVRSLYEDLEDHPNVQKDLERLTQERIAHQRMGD

Row | Compound | solubility [2] [µM] | solubility ([3]; 0.01 N HCl) [µM] | %max [4] [%] | solubility (physchem) [µM] | DC50 [1] [nM] | other results
1 | Cc1sc2c(c1C)C(c1ccc(Cl)cc1)=N[C@@H](CC(=O)NCCn1cc(COCCOc3cccc4c3C(=O)N(C3CCC(=O)NC3=O)C4=O)nn1)c1nnc(C)n1-2 (stereo partly specified) | 111 (≈ 91.6 µg/mL) | 242 (≈ 200 µg/mL) |  | 247 (≈ 204 µg/mL) | > 5000 | 
2 | Cc1sc2c(c1C)C(c1ccc(Cl)cc1)=N[C@@H](CC(=O)NCCn1cc(COCCOCCOCCOCCOc3cccc4c3C(=O)N(C3CCC(=O)NC3=O)C4=O)nn1)c1nnc(C)n1-2 (stereo partly specified) | 158 (≈ 151 µg/mL) | 317 (≈ 304 µg/mL) |  | 273 (≈ 261 µg/mL) | 200 | Activity [5]: > 90%; Activity [6]: inactive; Activity [7]: inactive; Activity [8]: inactive
3 | Cc1sc2c(c1C)C(c1ccc(Cl)cc1)=N[C@@H](CC(=O)NCCCCNC(=O)COc1cccc3c1C(=O)N(C1CCC(=O)NC1=O)C3=O)c1nnc(C)n1-2 (stereo partly specified) | 60 (≈ 47.1 µg/mL) | 171 (≈ 134 µg/mL) |  | 97 (≈ 76.2 µg/mL) |  | 
4 | Cc1sc2c(c1C)C(c1ccc(Cl)cc1)=N[C@@H](CC(=O)NCCN=[N+]=[N-])c1nnc(C)n1-2 |  |  |  |  |  | Activity [9]: inactive
5 | C#CCOCCOCCOCCOCCOc1cccc2c1C(=O)N(C1CCC(=O)NC1=O)C2=O (stereo unspecified) |  |  |  |  |  | Activity [9]: inactive
6 | Cc1sc2c(c1C)C(c1ccc(Cl)cc1)=N[C@@H](CC(=O)NCCn1cc(COCCOCCOCCOc3cccc4c3C(=O)N(C3CCC(=O)NC3=O)C4=O)nn1)c1nnc(C)n1-2 (stereo partly specified) | 130 (≈ 119 µg/mL) | 310 (≈ 283 µg/mL) |  | 216 (≈ 197 µg/mL) |  | 
7 | Cc1sc2c(c1C)C(c1ccc(Cl)cc1)=N[C@@H](CC(=O)NCCn1cc(COCCOCCOc3cccc4c3C(=O)N(C3CCC(=O)NC3=O)C4=O)nn1)c1nnc(C)n1-2 (stereo partly specified) | 76 (≈ 66.1 µg/mL) | 237 (≈ 206 µg/mL) |  | 237 (≈ 206 µg/mL) | > 5000 | 

Continued, in another order:

Row | solubility [2] [µM] | solubility ([3]; 0.01 N HCl) [µM] | %max [4] [%] | solubility (physchem) [µM] | Compound | DC50 [1] [nM] | other results
8 | 168 (≈ 189 µg/mL) | 394 (≈ 444 µg/mL) | 15 | 294 (≈ 332 µg/mL) | Cc1ncsc1-c1ccc(CNC(=O)[C@@H]2C[C@@H](O)CN2C(=O)[C@@H](NC(=O)COCCOCCOCCOCc2cn(CCNC(=O)C[C@@H]3N=C(c4ccc(Cl)cc4)c4c(sc(C)c4C)-n4c(C)nnc43)nn2)C(C)(C)C)cc1 | 460 | 
9 | 31 (≈ 24.2 µg/mL) | 171 (≈ 134 µg/mL) |  | 191 (≈ 149 µg/mL) | Cc1sc2c(c1C)C(c1ccc(Cl)cc1)=N[C@@H](CC(=O)NCCn1cc(COc3cccc4c3C(=O)N(C3CCC(=O)NC3=O)C4=O)nn1)c1nnc(C)n1-2 (stereo partly specified) |  | 
10 | 71 (≈ 76.9 µg/mL) | 293 (≈ 318 µg/mL) | 11 | 183 (≈ 198 µg/mL) | Cc1ncsc1-c1ccc(CNC(=O)[C@@H]2C[C@@H](O)CN2C(=O)[C@@H](NC(=O)COCCOCCOCc2cn(CCNC(=O)C[C@@H]3N=C(c4ccc(Cl)cc4)c4c(sc(C)c4C)-n4c(C)nnc43)nn2)C(C)(C)C)cc1 | 240 | 
11 | 38 (≈ 39.5 µg/mL) | 343 (≈ 357 µg/mL) | 22 | 178 (≈ 185 µg/mL) | Cc1ncsc1-c1ccc(CNC(=O)[C@@H]2C[C@@H](O)CN2C(=O)[C@@H](NC(=O)COCCOCc2cn(CCNC(=O)C[C@@H]3N=C(c4ccc(Cl)cc4)c4c(sc(C)c4C)-n4c(C)nnc43)nn2)C(C)(C)C)cc1 | 83 | Activity [10]: inactive
12 | 97 (≈ 97.3 µg/mL) |  | 100 | 164 (≈ 164 µg/mL) | Cc1ncsc1-c1ccc(CNC(=O)[C@@H]2C[C@@H](O)CN2C(=O)[C@@H](NC(=O)COCCOCCOCCNC(=O)C[C@@H]2N=C(c3ccc(Cl)cc3)c3c(sc(C)c3C)-n3c(C)nnc32)C(C)(C)C)cc1 |  | solubility ([3]; buffer): 450 µM (≈ 451 µg/mL)
13 |  | 314 (≈ 313 µg/mL) | 46 | 90 (≈ 89.6 µg/mL) | Cc1ncsc1-c1ccc(CNC(=O)[C@H]2CN(C(=O)[C@@H](NC(=O)COCc3cn(CCNC(=O)C[C@@H]4N=C(c5ccc(Cl)cc5)c5c(sc(C)c5C)-n5c(C)nnc54)nn3)C(C)(C)C)C[C@@H]2O)cc1 | 59 | 
14 | 206 (≈ 241 µg/mL) | 500 (≈ 586 µg/mL) | 3 | 313 (≈ 367 µg/mL) | Cc1ncsc1-c1ccc(CNC(=O)[C@@H]2C[C@@H](O)CN2C(=O)[C@@H](NC(=O)COCCOCCOCCOCCOCc2cn(CCNC(=O)C[C@@H]3N=C(c4ccc(Cl)cc4)c4c(sc(C)c4C)-n4c(C)nnc43)nn2)C(C)(C)C)cc1 | 630 | 
